Laboratory results reported in US10576092B1, “Doxorubicin derivatives and uses thereof” (S.S.Manufacturing Co. Ltd, priority 2019, dated 2020).

Columns and labels:
MCF-7 cells [1] = experiment: MTT (WST-1) assay for cytotoxicity effect of compound A on tumor cells; details: 24 hours treatment
Procedure: The human breast cancer cell line, MCF-7, was obtained from American Type Cell Collection (ATCC) (Rockville, Mo., U.S.A.). The cells were cultured to 70-80% confluence in Dulbecco's modified Eagle medium (DMEM) (Gibco, Grand Island, N.Y., U.S.A.) with 10% fetal bovine serum (FBS) (Gibco) at 37° C. and 5% CO2. MCF-7 cells were plated overnight in a 96-well plate (4,000 cells per well). […] Next, 10 μl/well of WST-1/ECS solution from the Quick Cell Proliferation Colorimetric Assay Kit (BioVision, Inc., Milptas, Calif., U.S.A.) was added, and the solution was incubated for 2 hours at 37° C. and 5% CO2. […] The half maximal inhibitory concentrations (IC50s) were calculated from linear regression from the absorbance optical density (OD) of each triplicate concentration.

MCF-7 cells [2] = experiment: Cytosolic oxidative stress; assay type: cell-based, human
MCF-7 cells [3] = experiment: Fluorescent microscopy of subcellular distribution; assay type: cell-based, human; details: 120 μg/ml, observed at 60, 120 and 360 minutes
Procedure: Low numbers of MCF-7 cells were seeded into 8-well plate (3,000 cells/well) overnight.

MCF-7 cells [4] = experiment: Cell cycle analysis; assay type: cell-based, human
MCF-7 cells [5] = experiment: Induction of MCF-7 cell apoptosis; assay type: cell-based, human

Procedure for Lipid solubility in oil: The suspended were vortexed and centrifuged at 3000 RPM, 10 mins periodically. Oil solvent volume was stepwise increased till completely soluble was observed and the soluble concentration were determined (Table1). The solutions were left at 24° C. overnight and were centrifuged at 5000 RPM for 20 mins. […] The suspensions were vigorously vortex and left at room temperature.

Row | Solubility in Oil (40° C.) (Lipid solubility in oil; Canola Oil) | Solubility in Oil (40° C.) (Lipid solubility in oil; Ethiodized Oil) | Solubility in Oil (40° C.) (Lipid solubility in oil; Olive Oil) | Compound | IC60 (MCF-7 cells [1]) | cytosolic oxidative stress (MCF-7 cells [2]) | entry into the nucleus (subcellular distribution) (MCF-7 cells [3]) | interference with the cell cycle (MCF-7 cells [4]) | induction of MCF-7 cell apoptosis (MCF-7 cells [5])
1 |  |  |  | ((3bS)-7-hydroxy-11a-methyl-1H,2H,3H,3aH,3bH,4H,5H,9bH,10H,11H,11aH-cyclopenta[a]phenanthren-1-yl N-[(2S,3S,6R)-3-hydroxy-2-methyl-6-{[(1S,3S)-3,5,12-trihydroxy-3-(2-hydroxyacetyl)-10-methoxy-6,11-dioxo-1,2,3,4,6,11-hexahydrotetracen-1-yl]oxy}oxan-4-yl]carbamate) [Compound A] | ~120 µg/mL | increased cytosolic oxidative stress | without entering the nucleus | did not interfere with the cell cycle | rapidly induced MCF-7 cell apoptosis
2 | less than 0.0001 mg/100 ml | less than 0.0001 mg/100 ml | less than 0.0001 mg/100 ml | COc1cccc2c1C(=O)c1c(O)c3c(c(O)c1C2=O)C[C@@](O)(C(=O)CO)C[C@@H]3O[C@H]1C[C@H](N)[C@H](O)[C@H](C)O1 [Doxorubicin] |  |  |  |  | 
